Source: ChEMBL document CHEMBL1201862, “PubChem BioAssay data set” (2004)
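1) Cells in 96-well plates. 2) Compound, 48 h, 5 concentrations. 3) Linear interpolation between surrounding doses. 4) Unreached endpoint = highest concentration. GI50: concentration for 50% inhibition of growth.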 Active and inactive are the calls of the source. Rule as the data show it: active = GI50 up to about 1.1 µM and inactive = higher.

Tests used:
Assay in all cases: DTP human tumour cell line panel, 48 h
[1] = tested on: HOP-62
[2] = tested on: NCI-H460
[3] = tested on: ACHN
[4] = tested on: TK-10
[5] = tested on: SN12C
[6] = tested on: SK-MEL-5
[7] = tested on: OVCAR-8
[8] = tested on: 786-0
[9] = tested on: HCT-116
[10] = tested on: NCI-H23
[11] = tested on: SK-MEL-28
[12] = tested on: UACC-62
[13] = tested on: RPMI-8226
[14] = tested on: SK-MEL-2
[15] = tested on: HCC 2998
[16] = tested on: Malme-3M
[17] = tested on: CAKI-1
[18] = tested on: LOX IMVI
[19] = tested on: DLD-1
[20] = tested on: A549
[21] = tested on: HOP-92
[22] = tested on: RXF 393
[23] = tested on: KM12
[24] = tested on: EKVX
[25] = tested on: OVCAR-3
[26] = tested on: HL-60
[27] = tested on: LXFL 529
[28] = tested on: M14
[29] = tested on: SF-295
[30] = tested on: XF498
[31] = tested on: HOP-18
[32] = tested on: SW-620
[33] = tested on: CCRF-CEM
[34] = tested on: UACC-257
[35] = tested on: NCI-H226
[36] = tested on: DMS-114
[37] = tested on: SNB-78
[38] = tested on: UO-31
[39] = tested on: NCI-H522
[40] = tested on: SF-268
[41] = tested on: SF-539
[42] = tested on: MOLT-4
[43] = tested on: SR
[44] = tested on: RXF 631
[45] = tested on: OVCAR-5
[46] = tested on: HT-29
[47] = tested on: K562
[48] = tested on: IGROV-1
[49] = tested on: OVCAR-4
[50] = tested on: SNB-19
[51] = tested on: M19-MEL
[52] = tested on: HCT-15
[53] = tested on: U-251
[54] = tested on: SK-OV-3
[55] = tested on: COLO 205
[56] = tested on: KM-20L2
[57] = tested on: A498
[58] = tested on: DMS-273
[59] = tested on: SNB-75

Measured: GI50

CC1=C(C(=O)CC(=O)C(=O)Nc2cccc(Cl)c2C)Sc2ccccc2N1
inactive: [1] > 100 µM | [2] > 100 µM | [3] > 100 µM | [4] > 100 µM | [5] > 100 µM | [6] > 100 µM | [7] > 100 µM | [8] > 100 µM | [9] > 100 µM | [10] > 100 µM | [11] > 100 µM | [12] > 100 µM | [13] > 100 µM | [14] > 100 µM | [15] > 100 µM | [16] > 100 µM | [17] > 100 µM | [18] > 100 µM | [19] > 100 µM | [20] > 100 µM | [21] > 100 µM | [22] > 100 µM | [23] > 100 µM | [24] > 100 µM | [25] > 100 µM | [26] > 100 µM | [27] > 100 µM | [28] > 100 µM | [29] > 100 µM | [30] > 100 µM | [31] > 100 µM | [32] > 100 µM | [33] > 100 µM | [34] > 100 µM | [35] > 100 µM | [36] > 100 µM | [37] > 100 µM | [38] > 100 µM | [39] > 100 µM | [40] > 100 µM | [41] > 100 µM | [42] > 100 µM | [43] > 100 µM | [44] > 100 µM | [45] > 100 µM | [46] > 100 µM | [47] > 100 µM | [48] > 100 µM | [49] > 100 µM | [50] > 100 µM | [51] > 100 µM | [53] > 100 µM | [54] > 100 µM
> 100 µM: [52]

CC(=O)NC1C(OCc2ccccc2)OC(COC(=O)CCCCCCCCCCNc2ccc([N+](=O)[O-])c3[nH]c4ccccc4c(=O)c23)C(O)C1OC(C)C(=O)NC(C)C(=O)NC(CCC(N)=O)C(=O)OCc1ccccc1 (stereo not drawn)
inactive: [1] > 100 µM | [2] > 100 µM | [3] > 100 µM | [4] > 100 µM | [55] > 100 µM | [5] > 100 µM | [6] > 100 µM | [7] > 100 µM | [8] > 100 µM | [9] > 100 µM | [10] > 100 µM | [11] > 100 µM | [12] > 100 µM | [13] > 100 µM | [14] > 100 µM | [15] > 100 µM | [17] > 100 µM | [18] > 100 µM | [19] > 100 µM | [56] > 100 µM | [57] > 100 µM | [20] > 100 µM | [23] > 100 µM | [24] > 100 µM | [25] > 100 µM | [26] > 100 µM | [27] > 100 µM | [28] > 100 µM | [58] > 100 µM | [29] > 100 µM | [59] > 100 µM | [30] > 100 µM | [31] > 100 µM | [32] > 100 µM | [34] > 100 µM | [35] > 100 µM | [36] > 100 µM | [37] > 100 µM | [38] > 100 µM | [39] > 100 µM | [40] > 100 µM | [41] > 100 µM | [42] > 100 µM | [43] > 100 µM | [45] > 100 µM | [46] > 100 µM | [47] > 100 µM | [48] > 100 µM | [49] > 100 µM | [50] > 100 µM | [51] > 100 µM | [53] > 100 µM | [54] > 100 µM
> 100 µM: [52]
